Experimental data reported in patent US10131652B2, “Pyrimidinyloxy benzene derivatives as herbicides” (E. I. DU PONT DE NEMOURS AND COMPANY, priority 2014, dated 2018).

Tests used:
Format in all cases: in vivo
[1] = system: barnyardgrass (Echinochloa crus-galli); assay: Test B pre-/postemergence plant response
Method in brief: (§1)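 Visual injury rating, 0 (no effect) to 100 (complete control), vs untreated controls after ~10 d greenhouse. Pre: directed soil spray after planting in loam/sand. Post: plants 2–10 cm, 1–2 leaf stage. Compound in non-phytotoxic solvent plus surfactant.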

corn (Zea mays) = assay: Test B pre-/postemergence plant response
Method in brief: as §1

[2] = system: giant foxtail (Setaria faberii); assay: Test B pre-/postemergence plant response
Method in brief: as §1

[3] = system: pigweed (Amaranthus retroflexus); assay: Test B pre-/postemergence plant response
Method in brief: as §1

[4] = system: wheat (Triticum aestivum); assay: Test B pre-/postemergence plant response
Method in brief: as §1

[5] = system: barnyardgrass (Echinochloa crus-galli); assay: Test C flooded paddy test plant response; conditions: Flood, 250 g ai/ha; scale of 0 to 100 where 0 is no effect and 100 is complete control; 13 to 15 days
Method in brief: (§2)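 Plants grown to 2-leaf stage, flooded 3 cm above soil; compounds applied directly into paddy water, depth kept throughout. Visual rating versus controls after 13 to 15 days in greenhouse, 0 (no effect) to 100 (complete control).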

[6] = system: ducksalad (Heteranthera limosa); assay: Test C flooded paddy test plant response; conditions: Flood, 250 g ai/ha; scale of 0 to 100 where 0 is no effect and 100 is complete control; 13 to 15 days
Method in brief: as §2

rice (Oryza sativa) = assay: Test C flooded paddy test plant response; conditions: Flood, 250 g ai/ha; scale of 0 to 100 where 0 is no effect and 100 is complete control; 13 to 15 days
Method in brief: as §2

[7] = system: small-flower umbrella sedge (Cyperus difformis); assay: Test C flooded paddy test plant response; conditions: Flood, 250 g ai/ha; scale of 0 to 100 where 0 is no effect and 100 is complete control; 13 to 15 days
Method in brief: as §2

[8] = system: galium (catchweed bedstraw, Galium aparine); assay: Test D pre-/postemergence plant response; conditions: Postemergence; for Galium plant response rating: 31 g ai/ha, scale 0 to 100 (0 no effect, 100 complete control); for Plant response rating, Galium: scale 0 to 100, 0 no effect, 100 complete control
From the text: (§3) Seeds of plant species selected from blackgrass (Alopecurus myosuroides), Italian ryegrass (Lolium multiflorum), winter wheat (Triticum aestivum), galium (catchweed bedstraw, Galium aparine), corn (Zea mays), large (Lg) crabgrass (Digitaria sanguinalis), giant foxtail (Setaria faberii), johnsongrass (Sorghum halepense), lambsquarters (Chenopodium album), morningglory (Ipomoea coccinea), yellow nutsedge (Cyperus esculentus), pigweed (Amaranthus retroflexus), ragweed (common ragweed, Ambrosia elatior), soybean (Glycine max), bamyardgrass (Echinochloa crus-galli), oilseed rape (Brassica napus), waterhemp (common waterhemp, Amaranthus rudis), and velvetleaf (Abutilon theophrasti) were planted into a blend of loam soil and sand and treated preemergence with test chemicals formulated in a non-phytotoxic solvent mixture which included a surfactant. At the same time, plants selected from these crop and weed species and also kochia (Kochia scoparia), wild oat (Avena fatua), and chickweed (common chickweed, Stellaria media) were planted in pots containing Redi-Earth® planting medium (Scotts Company, 14111 Scottslawn Road, Marysville, Ohio 43041) comprising spaghnum peat moss, vermiculite, wetting agent and starter nutrients and treated with postemergence applications of test chemicals formulated in the same manner. Plants ranged in height from 2 to 18 cm (1- to 4-leaf stage) for postemergence treatments. Treated plants and controls were maintained in a greenhouse for 13 to 15 days, after which time all species were compared to controls and visually evaluated. Plant response ratings, summarized in Table D, are based on a scale of 0 to 100 where 0 is no effect and 100 is complete control. A dash (-) response means no test result.

[9] = system: johnsongrass (Sorghum halepense); assay: Test D pre-/postemergence plant response; conditions: Postemergence; for Johnsongrass plant response rating: 31 g ai/ha, scale 0 to 100 (0 no effect, 100 complete control); for Plant response rating, Johnsongrass: scale 0 to 100, 0 no effect, 100 complete control
From the text: as §3

[10] = system: oilseed rape (Brassica napus); assay: Test D pre-/postemergence plant response; conditions: Postemergence; for Oilseed Rape plant response rating: 31 g ai/ha, scale 0 to 100 (0 no effect, 100 complete control); for Plant response rating, Oilseed Rape: 62 g ai/ha, scale 0 to 100, 0 no effect, 100 complete control
From the text: as §3

[11] = system: ragweed (common ragweed, Ambrosia elatior); assay: Test D pre-/postemergence plant response; conditions: Postemergence; for Ragweed plant response rating: 31 g ai/ha, scale 0 to 100 (0 no effect, 100 complete control); for Plant response rating, Ragweed: scale 0 to 100, 0 no effect, 100 complete control
From the text: as §3

[12] = system: winter wheat (Triticum aestivum); assay: Test D pre-/postemergence plant response; conditions: Postemergence; for Wheat plant response rating: 31 g ai/ha, scale 0 to 100 (0 no effect, 100 complete control); for Plant response rating, Wheat: scale 0 to 100, 0 no effect, 100 complete control
From the text: as §3

[13] = system: yellow nutsedge (Cyperus esculentus); assay: Test D pre-/postemergence plant response; conditions: Postemergence; for Nutsedge, Yellow plant response rating: 31 g ai/ha, scale 0 to 100 (0 no effect, 100 complete control); for Plant response rating, Nutsedge, Yellow: scale 0 to 100, 0 no effect, 100 complete control
From the text: as §3

[14] = 31 g ai/ha, Preemergence, 0 to 100 scale where 0 is no effect and 100 is complete control
[15] = 125 g ai/ha, postemergence, 0 to 100 scale, 0 no effect, 100 complete control
[16] = Postemergence, 31 g ai/ha, 0 to 100 scale (0 no effect, 100 complete control)
[17] = Preemergence, 125 g ai/ha, 0 to 100 scale (0 no effect, 100 complete control)
[18] = Postemergence, 500 g ai/ha, 0 to 100 scale (0 no effect, 100 complete control)
[19] = Preemergence, 500 g ai/ha, 0 to 100 scale where 0 is no effect and 100 is complete control

Compound	Plant response rating, Barnyardgrass [1, 15]	Barnyardgrass plant response rating [1, 17]	Plant response rating, Corn (corn (Zea mays); [15])	Plant response rating, Foxtail, Giant [2, 15]	Foxtail, Giant plant response rating [2, 17]	Plant response rating, Pigweed [3, 15]	Pigweed plant response rating [3, 17]	Plant response rating, Wheat [4, 15]	Barnyardgrass plant response rating [5]	Ducksalad plant response rating [6]	Rice plant response rating (rice (Oryza sativa))	Sedge, Umbrella plant response rating [7]	Galium plant response rating [8]	Plant response rating, Galium ([8]; 62 g ai/ha)	Johnsongrass plant response rating [9]	Plant response rating, Johnsongrass ([9]; 62 g ai/ha)	Oilseed Rape plant response rating [10]	Plant response rating, Oilseed Rape [10]	Ragweed plant response rating [11]	Plant response rating, Ragweed ([11]; 62 g ai/ha)	also measured
FC(F)(Br)c1cc(-c2ccccc2Oc2ncc(Cl)cn2)no1 [Compound 162]	90	100	40	90	100	100	100	30	0	0	0	0	60	60	5	10	5	40	30	40	Plant response rating, Barnyardgrass [1, 14]: 20; Plant response rating, Barnyardgrass [1, 16]: 10; Plant response rating, Corn (corn (Zea mays); [16]): 20; Plant response rating, Foxtail, Giant [2, 14]: 90; Plant response rating, Foxtail, Giant [2, 16]: 10; Plant response rating, Pigweed [3, 14]: 80; Plant response rating, Pigweed [3, 16]: 100; Plant response rating, Wheat [4, 16]: 20; Plant response rating, Galium ([8]; 125 g ai/ha): 80; Plant response rating, Johnsongrass ([9]; 125 g ai/ha): 20; Plant response rating, Ragweed ([11]; 125 g ai/ha): 50; Wheat plant response rating [12]: 0; Plant response rating, Wheat ([12]; 62 g ai/ha): 5; Plant response rating, Wheat ([12]; 125 g ai/ha): 5; Nutsedge, Yellow plant response rating [13]: 0; Plant response rating, Nutsedge, Yellow ([13]; 62 g ai/ha): 5; Plant response rating, Nutsedge, Yellow ([13]; 125 g ai/ha): 10
FC(F)(F)c1cc(-c2c(I)cccc2Oc2ncc(Cl)cn2)no1 [Compound 156]	0	0	20	20	20	90	80	20	0	0	0	0	60	70	5	10	40	45	10	15	Plant response rating, Barnyardgrass [1, 18]: 20; Plant response rating, Barnyardgrass [1, 19]: 20; Plant response rating, Corn (corn (Zea mays); [18]): 40; Plant response rating, Foxtail, Giant [2, 18]: 90; Plant response rating, Foxtail, Giant [2, 19]: 80; Plant response rating, Pigweed [3, 18]: 100; Plant response rating, Pigweed [3, 19]: 100; Plant response rating, Wheat [4, 18]: 30; Plant response rating (scale 0 to 100), Galium ([8]; 8 g ai/ha): 20; Plant response rating (scale 0 to 100), Johnsongrass ([9]; 8 g ai/ha): 0; Plant response rating (scale 0 to 100), Oilseed Rape ([10]; 8 g ai/ha): 5; Plant response rating (scale 0 to 100), Ragweed ([11]; 8 g ai/ha): 0; Plant response rating (scale 0 to 100), Wheat ([12]; 8 g ai/ha): 0; Wheat plant response rating [12]: 5; Plant response rating, Wheat ([12]; 62 g ai/ha): 10; Plant response rating (scale 0 to 100), Nutsedge, Yellow ([13]; 8 g ai/ha): 0; Nutsedge, Yellow plant response rating [13]: 5; Plant response rating, Nutsedge, Yellow ([13]; 62 g ai/ha): 5
